According to PubChem BioAssay (NCI):
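All cell lines were grown in 96-well plates and treated with compound for 48 hours. GI50 is the concentration that inhibits growth by half. TGI: total growth inhibition.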

What was measured:
Assay in all cases: growth of human tumour cells (NCI), 48 h
SK-MEL-28 melanoma = system: SK-MEL-28 melanoma
SF-539 CNS = system: SF-539 CNS
A549 NSCLC = system: A549 NSCLC
OVCAR-8 ovarian = system: OVCAR-8 ovarian
SF-295 CNS = system: SF-295 CNS
MALME-3M melanoma = system: MALME-3M melanoma
T-47D breast = system: T-47D breast
M14 melanoma = system: M14 melanoma
HOP-62 NSCLC = system: HOP-62 NSCLC
IGROV1 ovarian = system: IGROV1 ovarian
KM12 colon = system: KM12 colon
TK-10 renal = system: TK-10 renal
EKVX NSCLC = system: EKVX NSCLC
OVCAR-5 ovarian = system: OVCAR-5 ovarian
BT-549 breast = system: BT-549 breast
COLO 205 colon = system: COLO 205 colon
OVCAR-3 ovarian = system: OVCAR-3 ovarian
MDA-MB-231 breast = system: MDA-MB-231 breast
NCI-H460 lung = system: NCI-H460 lung
SNB-75 CNS = system: SNB-75 CNS
OVCAR-4 ovarian = system: OVCAR-4 ovarian
A498 renal = system: A498 renal
UACC-62 melanoma = system: UACC-62 melanoma
MOLT-4 leukemia = system: MOLT-4 leukemia
MDA-MB-435 = system: MDA-MB-435
UO-31 renal = system: UO-31 renal
SN12C renal = system: SN12C renal
HCT-15 colon = system: HCT-15 colon
MCF7 breast = system: MCF7 breast
786-0 renal = system: 786-0 renal
HCC-2998 colon = system: HCC-2998 colon
NCI/ADR-RES ovarian = system: NCI/ADR-RES ovarian
SK-MEL-2 melanoma = system: SK-MEL-2 melanoma
HT29 colon = system: HT29 colon
SNB-19 CNS = system: SNB-19 CNS
SW-620 colon = system: SW-620 colon
ACHN renal = system: ACHN renal
HL-60(TB) leukemia = system: HL-60(TB) leukemia
U251 CNS = system: U251 CNS
NCI-H226 lung = system: NCI-H226 lung
NCI-H23 lung = system: NCI-H23 lung
CAKI-1 renal = system: CAKI-1 renal
HS 578T breast = system: HS 578T breast
SK-OV-3 ovarian = system: SK-OV-3 ovarian
K-562 leukemia = system: K-562 leukemia
HCT-116 colon = system: HCT-116 colon
UACC-257 melanoma = system: UACC-257 melanoma
PC-3 prostate = system: PC-3 prostate
SK-MEL-5 melanoma = system: SK-MEL-5 melanoma
SF-268 CNS = system: SF-268 CNS
RPMI-8226 leukemia = system: RPMI-8226 leukemia
RXF 393 renal = system: RXF 393 renal

SMILES: CCCCCCCCCCCCCCCC1=NCC[N+]1(CCO)CCO
- GI50 (SK-MEL-28 melanoma): 5.1 µM
- TGI (SK-MEL-28 melanoma): 16.8 µM
- GI50 (SF-539 CNS): 1.91 µM
- TGI (SF-539 CNS): 4 µM
- GI50 (A549 NSCLC): 2.28 µM
- TGI (A549 NSCLC): 5.35 µM
- GI50 (OVCAR-8 ovarian): 3.03 µM
- TGI (OVCAR-8 ovarian): 8.36 µM
- GI50 (SF-295 CNS): 10.5 µM
- TGI (SF-295 CNS): 26.3 µM
- GI50 (MALME-3M melanoma): 12.2 µM
- TGI (MALME-3M melanoma): 28 µM
- GI50 (T-47D breast): 3.35 µM
- TGI (T-47D breast): 13.2 µM
- GI50 (M14 melanoma): 1.62 µM
- TGI (M14 melanoma): 3.01 µM
- GI50 (HOP-62 NSCLC): 1.71 µM
- TGI (HOP-62 NSCLC): 3.23 µM
- GI50 (IGROV1 ovarian): 1.21 µM
- TGI (IGROV1 ovarian): 2.63 µM
- GI50 (KM12 colon): 1.78 µM
- TGI (KM12 colon): 3.52 µM
- GI50 (TK-10 renal): 3.55 µM
- TGI (TK-10 renal): 13.6 µM
- GI50 (EKVX NSCLC): 10.2 µM
- TGI (EKVX NSCLC): 32.4 µM
- GI50 (OVCAR-5 ovarian): 1.97 µM
- TGI (OVCAR-5 ovarian): 4.15 µM
- GI50 (BT-549 breast): 3.3 µM
- TGI (BT-549 breast): 11.9 µM
- GI50 (COLO 205 colon): 1.87 µM
- TGI (COLO 205 colon): 3.68 µM
- GI50 (OVCAR-3 ovarian): 2.52 µM
- TGI (OVCAR-3 ovarian): 5.74 µM
- GI50 (MDA-MB-231 breast): 1.81 µM
- TGI (MDA-MB-231 breast): 3.51 µM
- GI50 (NCI-H460 lung): 1.84 µM
- TGI (NCI-H460 lung): 3.47 µM
- GI50 (SNB-75 CNS): 2.47 µM
- TGI (SNB-75 CNS): 16.6 µM
- GI50 (OVCAR-4 ovarian): 4.75 µM
- TGI (OVCAR-4 ovarian): 26.5 µM
- GI50 (A498 renal): 7.79 µM
- TGI (A498 renal): 21.6 µM
- GI50 (UACC-62 melanoma): 1.77 µM
- TGI (UACC-62 melanoma): 3.27 µM
- GI50 (MOLT-4 leukemia): 1.8 µM
- TGI (MOLT-4 leukemia): 4.15 µM
- GI50 (MDA-MB-435): 2.1 µM
- TGI (MDA-MB-435): 4.4 µM
- GI50 (UO-31 renal): 1.4 µM
- TGI (UO-31 renal): 3.33 µM
- GI50 (SN12C renal): 1.85 µM
- TGI (SN12C renal): 3.92 µM
- GI50 (HCT-15 colon): 1.94 µM
- TGI (HCT-15 colon): 4.48 µM
- GI50 (MCF7 breast): 3.46 µM
- TGI (MCF7 breast): 14 µM
- GI50 (786-0 renal): 1.64 µM
- TGI (786-0 renal): 3 µM
- GI50 (HCC-2998 colon): 1.68 µM
- TGI (HCC-2998 colon): 4.19 µM
- GI50 (NCI/ADR-RES ovarian): 2.62 µM
- TGI (NCI/ADR-RES ovarian): 6.61 µM
- GI50 (SK-MEL-2 melanoma): 2.89 µM
- TGI (SK-MEL-2 melanoma): 10.3 µM
- GI50 (HT29 colon): 2.57 µM
- TGI (HT29 colon): 9.13 µM
- GI50 (SNB-19 CNS): 3.8 µM
- TGI (SNB-19 CNS): 15.9 µM
- GI50 (SW-620 colon): 1.76 µM
- TGI (SW-620 colon): 3.54 µM
- GI50 (ACHN renal): 2.53 µM
- TGI (ACHN renal): 6.64 µM
- GI50 (HL-60(TB) leukemia): 0.442 µM
- TGI (HL-60(TB) leukemia): 2.61 µM
- GI50 (U251 CNS): 1.64 µM
- TGI (U251 CNS): 3.03 µM
- GI50 (NCI-H226 lung): 3.17 µM
- TGI (NCI-H226 lung): 12.3 µM
- GI50 (NCI-H23 lung): 2.16 µM
- TGI (NCI-H23 lung): 5.08 µM
- GI50 (CAKI-1 renal): 3.58 µM
- TGI (CAKI-1 renal): 14.6 µM
- GI50 (HS 578T breast): 2.51 µM
- TGI (HS 578T breast): 7.17 µM
- GI50 (SK-OV-3 ovarian): 4.3 µM
- TGI (SK-OV-3 ovarian): 15.9 µM
- GI50 (K-562 leukemia): 1.36 µM
- TGI (K-562 leukemia): 2.82 µM
- GI50 (HCT-116 colon): 1.59 µM
- TGI (HCT-116 colon): 2.94 µM
- GI50 (UACC-257 melanoma): 6.48 µM
- TGI (UACC-257 melanoma): 20.7 µM
- GI50 (PC-3 prostate): 1.42 µM
- TGI (PC-3 prostate): 3.3 µM
- GI50 (SK-MEL-5 melanoma): 4.39 µM
- TGI (SK-MEL-5 melanoma): 16.1 µM
- GI50 (SF-268 CNS): 1.71 µM
- TGI (SF-268 CNS): 3.46 µM
- GI50 (RPMI-8226 leukemia): 4.89 µM
- TGI (RPMI-8226 leukemia): 40.5 µM
- GI50 (RXF 393 renal): 2.47 µM
- TGI (RXF 393 renal): 6.28 µM
